Test results as given in PMC4770093, “The role of kinetic context in apparent biased agonism at GPCRs” (Nature Communications, 2016).
“And” between values parts separate entries of the source, which are not always exact repeats. Equal values may be shown once. Read-outs that look alike come from different tables or passages of the source.

What was measured:
[1] = target: SNAP-tagged human dopamine D2L (Homo sapiens, UniProt P14416); test: Tag-lite PPHT-red competition kinetic binding (HTRF); details: PPHT-red tracer, Tag-lite
Sequence of SNAP-tagged human dopamine D2L (P14416 whole entry): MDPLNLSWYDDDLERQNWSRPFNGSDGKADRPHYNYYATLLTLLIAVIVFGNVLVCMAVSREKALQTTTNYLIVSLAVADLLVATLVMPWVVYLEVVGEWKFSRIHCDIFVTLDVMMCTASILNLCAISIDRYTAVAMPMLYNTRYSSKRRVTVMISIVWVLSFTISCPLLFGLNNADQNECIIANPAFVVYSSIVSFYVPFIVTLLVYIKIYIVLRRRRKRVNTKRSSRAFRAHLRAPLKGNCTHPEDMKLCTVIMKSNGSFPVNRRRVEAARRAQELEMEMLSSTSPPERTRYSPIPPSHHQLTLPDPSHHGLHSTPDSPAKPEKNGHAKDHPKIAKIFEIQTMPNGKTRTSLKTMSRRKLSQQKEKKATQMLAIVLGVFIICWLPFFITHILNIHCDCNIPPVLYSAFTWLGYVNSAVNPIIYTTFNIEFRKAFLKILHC
Procedure: To terbium label the SNAP-CHO-D2L cells, cell culture medium was removed from the T175 cm^2 flasks containing confluent adherent SNAP-CHO-D2L cells. Twelve millilitres of Tag-lite labelling medium containing 100 nM of SNAP-Lumi4-Tb was added to the flask and incubated for 1 h at 37 °C under 5% CO2. Cells were then washed 2 × in 15 ml PBS (GIBCO, Invitrogen, Paisley, UK) to remove the excess of SNAP-Lumi4-Tb and detached using 5 ml of enzyme-free Hank's-based cell dissociation buffer (GIBCO, Invitrogen, Paisley, UK) and collected in a vial containing 5 ml of DMEM/Nutrient F-12 Ham, 2 mM glutamine supplemented 10% FCS. Cells were pelleted by centrifugation (5 min at 1,500 r.p.m.) and the pellets were frozen to −80 °C before preparation of membranes.
All subsequent steps described were conducted at 4 °C, to avoid receptor degradation. Twenty millilitres of wash buffer (10 mM HEPES and 10 mM EDTA pH 7.4) was added to the pellet of terbium-labelled cells (equivalent to 1 × t175 cm^2). […] The supernatant was discarded and the pellet was homogenized and centrifuged as described above in wash buffer. The final pellet was suspended in ice-cold 10 mM HEPES and 0.1 mM EDTA pH 7.4, at a concentration of 5–10 mg m^−1. Protein concentration was determined by the bicinchoninic acid assay using BSA as a standard and aliquots maintained at −80 °C until required. Before their use, the frozen membranes were thawed and the membranes suspended in the assay buffer at a membrane concentration of 0.1 mg m^−1.
GppNHp was included to remove the G protein-coupled population of receptors that can result in two binding sites in membrane preparations, because the Motulsky–Mahan model is only appropriate for ligands competing at a single site. […] Both fluorescent ligands and unlabelled compounds were diluted in the binding assay buffer.
Kinetics acquisitions at intervals of 20 s were recorded using the standard settings of the reader for HTRF measurements. […] Specific binding was determined by subtracting the nonspecific HTRF ratio from the total HTRF ratio.
To accurately determine association rate (kon) and dissociation rate (koff) values, the observed rate of association (kob) was calculated using at least four different concentrations of PPHT-red. The appropriate concentration of PPHT-red was incubated in a 384-well Optiplate with human SNAP-D2LR-CHO cell membranes (2 μg per well) in assay binding buffer at 37 °C (final assay volume, 40 μl). The degree of PPHT-red bound to the receptor was assessed at multiple time points by HTRF detection, to allow construction of association kinetic curves. The resulting data were globally fitted to the association kinetic model (equation (8)) to derive a single best-fit estimate for kon and koff as described under ‘Data analysis'.
On the same 384-well Optiplate plate, the kinetic parameters of unlabelled ligand were assessed using a competition kinetic binding assay. This approach involves the simultaneous addition of both fluorescent ligand and competitor to receptor preparation so that at t=0 all receptors are unoccupied. […] The degree of PPHT-red bound to the receptor was assessed at multiple time points by HTRF detection. Nonspecific binding was determined as the amount of HTRF signal detected in the presence of spiperone (1 μM) and was subtracted from each time point. Each time point was conducted on the same 384-well plate incubated at 37 °C with shaking (100 r.p.m.) after every cycle.
Data were globally fitted using equation (7), to simultaneously calculate kon and koff.

D2R = test: Simulation of receptor occupancy over time from kon and koff; details: simulation with a KD concentration of each agonist
Source text: We extended these studies with a Tag-lite receptor binding assay using a D2R construct with an amino-terminal SNAP tag and the fluorescently labelled agonist (±)-4′-amino-2-(N-phenethyl-N-propyl)-amino-5-hydroxytetralin (PPHT). […] The association rate of a ligand is often thought to be diffusion limited. […] Using these kinetic parameters, we performed a simulation to estimate the receptor occupancy of a KD concentration of each agonist over time (Fig. 4e).
Kinetic binding parameters of kon (a), koff (b) and t1/2 (c) were determined in a competition kinetic binding assay using a Tag-lite binding assay and the fluorescently labelled agonist PPHT as the tracer ligand (Supplementary Table 6). […] All values are expressed as mean±s.e.m. from three experiments. (e) The values of kon and koff obtained in the competition kinetic assay were used to simulate receptor occupancy over time using equation (9) and the concentration of ligand equivalent to its KD (see Supplementary Table 6).
where Ymax reflects maximum binding of a concentration of ligand and kob is determined by equation (8).

D2LR [2] = target: T1, D2LR (Homo sapiens, UniProt P14416); test: ERK1/2 phosphorylation assay (Alphascreen SureFire); type: cell-based; parameters: expressed in transfected cells; details: for alpahscreen assay to detect pERK1/2, counts: agonist 10 μM (cariprazine 1 μM), single experiments n=1 to n=4
T1 sequence (P14416 whole entry, the tested form may be a part): as the sequence (P14416 whole entry) above
Procedure: ERK1/2 phosphorylation was measured using the Alphascreen SureFire ERK kit (PerkinElmer, Waltham, USA). Cells were seeded into 96-well plates at a density of 50,000 cells per well. After 5–7 h, cells were washed with PBS and incubated in serum-free DMEM overnight before assaying. Dose–response experiments were performed for each ligand at 37 °C in the presence of 0.1% ascorbic acid. […] The plate was shaken for 5 min at room temperature (RT) before transferring 5 μl of the lysates to a white 384-well Proxiplate (PerkinElmer, Waltham, USA). […] Plates were read using a Fusion-TM plate reader (PerkinElmer, Waltham, USA).

D2LR [3] = target: T1, D2LR; test: Gαi1 G protein activation (BRET); type: cell-based; parameters: expressed in transfected cells
Procedure: (§1) G protein activation. Flp-In-CHO cells stably expressing the D2LR were seeded at a density of 2,000,000 cells per 10-cm dish and were transfected the following day using polyethylenimine as the transfection reagent. […] Twenty-four hours after transfection, the cells were plated into 96-well CulturPlates (PerkinElmer) and grown overnight. The cells were equilibrated in Hank's balanced salt solution at 37 °C before starting the experiment. The cells were stimulated with the agonists for the indicated timeframes when the BRET readings were captured. Coelenterazine (Promega) was added at a final concentration of 5 μM at least 3 min before measurement. […] Net BRET was determined by subtraction of the vehicle control from the agonist-induced response.

D2LR [4] = target: T1, D2LR; test: GαoB G protein activation (BRET); type: cell-based; parameters: expressed in transfected cells; details: for Emax / Emax Gao: relative to the maximal response of ropinirole; for change in potency over time in the GαoB activation assay: time points from 2 to 90 min;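 as to all read-outs here: Flp-In-CHO cells stably expressing D2LR, transiently transfected, agonist-stimulated in HBSS at 37 °C, net BRET read after coelenterazine, vehicle control subtracted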
Procedure: as §1

[5] = 5 minute timepoint, Flp-In-CHO-D2LR
[6] = 5 minute timepoint, dopamine as reference agonist

CCCN(CCC)CCc1cccc2c1CC(=O)N2 [Ropinirole, ropinirole]
koff ([1]; 100 μM GppNHp, 37 °C, read-out: koff (converted)): 0.0433 s⁻¹ | Kd ([1]; read-out: pKd (affinity determined from kinetic parameters) (converted)): 1860 nM | time to maximal receptor occupancy (D2R): ≤ 1 min | Log(τ/KA) pERK1/2 (D2LR [2]; [5]): 8.44 ± 0.05 | ΔLog(τ/KA) pERK1/2 (D2LR [2]; [6]): -0.12 ± 0.07 | alpahscreen assay to detect pERK1/2, counts (D2LR [2]; time 5 mins): 22.2889 counts and 25.6765 counts and 28.0112 counts | alpahscreen assay to detect pERK1/2, counts (D2LR [2]; time 7.5 mins): 28.0112 counts and 22.6774 counts and 25.7734 counts | alpahscreen assay to detect pERK1/2, counts (D2LR [2]; time 10 mins): 21.5421 counts and 16.2572 counts and 11.748 counts and 11.8417 counts | alpahscreen assay to detect pERK1/2, counts (D2LR [2]; time 20 mins): 4.739 counts and 4.229 counts and 3.491 counts and 4.291 counts | alpahscreen assay to detect pERK1/2, counts (D2LR [2]; time 30 mins): 2.723 counts and 2.242 counts and 2.289 counts and 2.713 counts | Log(τ/KA) Gαi1 activation (D2LR [3]): 6.75 ± 0.09 | ΔLog(τ/KA) Gαi1 activation (D2LR [3]): -0.43 ± 0.13 | Log(τ/KA) GαoB activation (D2LR [4]): 7.08 ± 0.08 | pEC50 Gao (D2LR [4]): 7.33 | ΔLog(τ/KA) GαoB activation (D2LR [4]): -0.16 ± 0.11 | EC50 (D2LR [4]; 2 min): 107 nM | Emax (D2LR [4]; 2 min): 100% | EC50 (D2LR [4]; 5 min): 95.5 nM | Emax (D2LR [4]; 5 min): 100% | EC50 (D2LR [4]; 10 min): 67.6 nM | Emax (D2LR [4]; 10 min): 100% | Emax (D2LR [4]; 15 min): 100% | EC50 (D2LR [4]; 30 min): 30.9 nM | Emax (D2LR [4]; 30 min): 100% | EC50 (D2LR [4]; 45 min): 41.7 nM | Emax (D2LR [4]; 45 min): 100% | EC50 (D2LR [4]; 60 min): 51.3 nM | Emax (D2LR [4]; 60 min): 100% | EC50 (D2LR [4]; 75 min): 39.8 nM | Emax (D2LR [4]; 75 min): 100% | EC50 (D2LR [4]; 90 min): 43.7 nM | Emax (D2LR [4]; 90 min): 100% | change in potency over time in the GαoB activation assay (D2LR [4]): no change in potency

CCCN1CCC[C@@H](c2cccc(O)c2)C1 [S-3PPP, (S)-(-)-3-(3-hydroxyphenyl)-N-propylpiperidine]
time to maximal receptor occupancy (D2R): ≤ 1 min | alpahscreen assay to detect pERK1/2, counts (D2LR [2]; time 7.5 mins): 7.838 counts and 8.667 counts and 10.676 counts and 8.644 counts | alpahscreen assay to detect pERK1/2, counts (D2LR [2]; time 10 mins): 7.633 counts and 9.485 counts and 6.489 counts and 6.6386 counts | alpahscreen assay to detect pERK1/2, counts (D2LR [2]; time 15 mins): 3.509 counts and 3.085 counts and 2.82 counts and 2.443 counts | alpahscreen assay to detect pERK1/2, counts (D2LR [2]; time 20 mins): 2.3 counts and 2.162 counts and 3.001 counts and 1.823 counts | alpahscreen assay to detect pERK1/2, counts (D2LR [2]; time 30 mins): 1.331 counts and 1.287 counts and 2.069 counts and 1.34 counts | Log(τ/KA) Gαi1 activation (D2LR [3]; [5]): 6.60 ± 0.12 | ΔLog(τ/KA) Gαi1 activation (D2LR [3]; [6]): -0.58 ± 0.15 | Emax Gao (D2LR [4]; 2 min): 64 ± 5.6 | Emax Gao (D2LR [4]; 5 min): 68 ± 3.0 | Log(τ/KA) GαoB activation (D2LR [4]; [5]): 6.40 ± 0.11 | ΔLog(τ/KA) GαoB activation (D2LR [4]; [6]): -0.84 ± 0.14 | Emax Gao (D2LR [4]; 10 min): 73 ±3.1 | Emax Gao (D2LR [4]; 15 min): 76 ± 2.2 | Emax Gao (D2LR [4]; 30 min): 74 ± 3.0 | Emax Gao (D2LR [4]; 45 min): 72 ± 2.2 | Emax Gao (D2LR [4]; 60 min): 72 ± 2.3 | Emax Gao (D2LR [4]; 90 min): 77 ± 2.6 | change in potency over time in the GαoB activation assay (D2LR [4]): twofold
